Each block holds one compound with its values, some of them ahead of it.
Key:
Rattus norvegicus [1] = species: Rattus norvegicus; test: Inhibition of sorbitol accumulation in diabetic rat by acute test; format: functional
Rattus norvegicus [2] = species: Rattus norvegicus; test: Inhibition of sorbitol accumulation in diabetic rat by chronic test; format: functional
Rattus norvegicus [3] = test: Inhibition of sorbitol accumulation in diabetic rat by chronic test does at 20 mg/kg; format: functional
Rattus norvegicus [4] = test: Inhibition of sorbitol accumulation in diabetic rat by acute test dosed at 30 mg/kg; format: functional
[5] = biological target: Aldo-keto reductase family 1 member B1 (Homo sapiens, UniProt P15121); test: In vitro inhibitroy concentration against Aldose reductase incubated at 24 degree C for 15 minutes in pH 7.0
Rattus norvegicus [6] = test: Inhibition of fructose accumulation in diabetic rat after oral gavage administration, pH 4.5 by chronic test dosed at 5 mg/kg; format: functional
Rattus norvegicus [7] = test: Inhibition of fructose accumulation in diabetic rat after oral gavage administration, pH 4.5 by chronic test dosed at 20 mg/kg; format: functional
Rattus norvegicus [8] = test: Inhibition of sorbitol accumulation in diabetic rat by acute test dosed at 20 mg/kg; format: functional
Rattus norvegicus [9] = test: Inhibition of fructose accumulation in diabetic rat after oral gavage administration incubated at RT for 60 minutes in pH 4.5 by acute test dosed at 5 mg/kg; format: functional; conditions: 1 h
Rattus norvegicus [10] = test: Inhibition of sorbitol accumulation in diabetic rat by acute test dosed at 5 mg/kg; format: functional
Rattus norvegicus [11] = test: Inhibition of fructose accumulation in diabetic rat after oral gavage administration incubated at RT for 60 minutes in pH 4.5 by acute test dosed at 20 mg/kg; format: functional; conditions: 1 h
Rattus norvegicus [12] = test: Inhibition of sorbitol accumulation in diabetic rat by chronic test dosed at 5 mg/kg; format: functional
Rattus norvegicus [13] = test: Inhibition of sorbitol accumulation in diabetic rat by chronic test dosed at 20 mg/kg; format: functional
Rattus norvegicus [14] = test: Inhibition of fructose accumulation in diabetic rat after oral gavage administration incubated at RT for 60 minutes in pH 4.5 by chronic test 10 mg/kg; conditions: 1 h
Rattus norvegicus [15] = test: Inhibition of fructose accumulation in diabetic rat after oral gavage administration incubated at RT for 60 minutes in pH 4.5 by chronic test 30 mg/kg; conditions: 1 h
Rattus norvegicus [16] = test: Inhibition of sorbitol accumulation in diabetic rat by acute test dosed at 10 mg/kg; format: functional
Rattus norvegicus [17] = test: Inhibition of sorbitol accumulation in diabetic rat by acute test dosed at 1 mg/kg; format: functional
Rattus norvegicus [18] = species: Rattus norvegicus; test: Dose required for inhibition of sorbitol accumulation in diabetic rat by acute test; format: functional
Rattus norvegicus [19] = species: Rattus norvegicus; test: Dose required for sorbitol accumulation in diabetic rat by chronic test; format: functional
Rattus norvegicus [20] = test: Inhibition of fructose accumulation in diabetic rat after oral gavage administration incubated at RT for 60 minutes in pH 4.5 by acute test dosed at 3 mg/kg; format: functional; conditions: 1 h
Rattus norvegicus [21] = test: Inhibition of fructose accumulation in diabetic rat after oral gavage administration incubated at RT for 60 minutes in pH 4.5 by acute test dosed at 1 mg/kg; format: functional; conditions: 1 h
Rattus norvegicus [22] = test: Inhibition of sorbitol accumulation in diabetic rat by chronic test dosed at 1 mg/kg; format: functional
Rattus norvegicus [23] = test: Inhibition of sorbitol accumulation in diabetic rat by chronic test dosed at 10 mg/kg; format: functional
Rattus norvegicus [24] = test: Inhibition of fructose accumulation in diabetic rat after oral gavage administration incubated at RT for 60 minutes in pH 4.5 by acute test dosed at 10 mg/kg; format: functional; conditions: 1 h
Rattus norvegicus [25] = test: Inhibition of fructose accumulation in diabetic rat after oral gavage administration, pH 4.5 by chronic test dosed at 10 mg/kg; format: functional
Rattus norvegicus [26] = test: Inhibition of sorbitol accumulation in diabetic rat by acute test dosed at 3 mg/kg; format: functional
Rattus norvegicus [27] = test: Inhibition of fructose accumulation in diabetic rat after oral gavage administration, pH 4.5 by chronic test dosed at 3 mg/kg; format: functional
Rattus norvegicus [28] = test: Dose required for fructose accumulation in diabetic rat after oral gavage administration incubated at RT for 60 minutes in pH 4.5 by acute test; format: functional
Rattus norvegicus [29] = test: Inhibition of fructose accumulation in diabetic rat after oral gavage administration, pH 4.5 by chronic test dosed at 1 mg/kg; format: functional
Rattus norvegicus [30] = test: Inhibition of sorbitol accumulation in diabetic rat by chronic test dosed at 3 mg/kg; format: functional
Rattus norvegicus [31] = test: Inhibition of sorbitol accumulation in diabetic rat by acute test dosed at 60 mg/kg; format: functional
[32] = Maximum plasma concentration in rat was determined; format: ADME, organism-based
Rattus norvegicus [33] = test: Dose required for fructose accumulation in diabetic rat after oral gavage administration, pH 4.5 by chronic test; format: functional
Rattus norvegicus [34] = test: Dose required for fructose accumulation in diabetic rat after oral gavage administration incubated at RT for 60 minutes in pH 4.5 by acute test; conditions: 1 h
Rattus norvegicus [35] = species: Rattus norvegicus; test: Dose required for sorbitol accumulation in diabetic rat by chronic test
Rattus norvegicus [36] = test: Inhibition of sorbitol accumulation in diabetic rat by acute test; dosed at 10 mg/kg; format: functional
Rattus norvegicus [37] = test: Inhibition of sorbitol accumulation in diabetic rat by acute test; dosed at 20 mg/kg; format: functional
Rattus norvegicus [38] = test: Inhibition of fructose accumulation in diabetic rat after oral gavage administration incubated at RT for 60 minutes in pH 4.5 by acute test; dosed at 20 mg/kg; format: functional; conditions: 1 h
Rattus norvegicus [39] = test: Inhibition of fructose accumulation in diabetic rat after oral gavage administration incubated at RT for 60 minutes in pH 4.5 by acute test; dosed at 10 mg/kg; format: functional; conditions: 1 h
Rattus norvegicus [40] = test: Inhibition of sorbitol accumulation in diabetic rat by acute test dosed at 50 mg/kg; format: functional
Rattus norvegicus [41] = test: Dose required for fructose accumulation in diabetic rat after oral gavage administration incubated at RT for 60 minutes in pH 4.5 by acute; format: functional
Rattus norvegicus [42] = test: Inhibition of fructose accumulation in diabetic rat after oral gavage administration incubated at RT for 60 minutes in pH 4.5 by acute test dosed at 25 mg/kg; format: functional; conditions: 1 h
Rattus norvegicus [43] = test: Inhibition of fructose accumulation in diabetic rat after oral gavage administration incubated at RT for 60 minutes in pH 4.5 by acute test dosed at 50 mg/kg; format: functional; conditions: 1 h
Rattus norvegicus [44] = test: Inhibition of sorbitol accumulation in diabetic rat by acute test dosed at 25 mg/kg; format: functional

IC50 [5]: 50 nM
Compound: O=c1ccc(S(=O)(=O)c2c(Cl)cccc2Cl)n[nH]1
inhibition in vivo at 20 mg/kg (Rattus norvegicus [3]): 75%
inhibition in vivo at 30 mg/kg (Rattus norvegicus [4]): 81%

IC50 [5]: 3 nM
Compound: Cc1c(S(=O)(=O)c2ccc(O)nn2)oc2ccc(F)cc12
inhibition in vivo at 10 mg/kg (Rattus norvegicus [16]): 84%
inhibition in vivo at 1 mg/kg (Rattus norvegicus [17]): 47%
ED50 (Rattus norvegicus [18]): 1.2 mg/kg
ED50 (Rattus norvegicus [19]): 1 mg/kg
inhibition in vivo at 3 mg/kg (Rattus norvegicus [20]): 42%
inhibition in vivo at 1 mg/kg (Rattus norvegicus [21]): 11%
inhibition in vivo at 1 mg/kg (Rattus norvegicus [22]): 52%
inhibition in vivo at 10 mg/kg (Rattus norvegicus [23]): 100%
inhibition in vivo at 10 mg/kg (Rattus norvegicus [24]): 62%
inhibition in vivo at 10 mg/kg (Rattus norvegicus [25]): 90%
inhibition in vivo at 3 mg/kg (Rattus norvegicus [26]): 66%
inhibition in vivo at 3 mg/kg (Rattus norvegicus [27]): 64%
ED50 (Rattus norvegicus [28]): 5.8 mg/kg
inhibition in vivo at 1 mg/kg (Rattus norvegicus [29]): 17%
inhibition in vivo at 3 mg/kg (Rattus norvegicus [30]): 86%

IC50 [5]: 1 nM
Cmax [32]: 9000 ng/mL
Compound: Cc1c(S(=O)(=O)c2ccc(=O)[nH]n2)oc2ccc(Cl)cc12
ED50 (Rattus norvegicus [18]): 0.2 mg/kg
ED50 (Rattus norvegicus [28]): 0.8 mg/kg

IC50 [5]: 73 nM
Compound: O=c1ccc(S(=O)(=O)c2cc(Cl)ccc2Cl)n[nH]1
inhibition in vivo at 10 mg/kg (Rattus norvegicus [36]): 65%
inhibition in vivo at 20 mg/kg (Rattus norvegicus [37]): 79%
inhibition in vivo at 20 mg/kg (Rattus norvegicus [38]): 67%
inhibition in vivo at 10 mg/kg (Rattus norvegicus [39]): 36%

Further lines, the compound ahead of its results:

Compound: O=S(=O)(c1ccccc1)c1ccc(S(=O)(=O)c2ccccc2)nn1
Inhibition (Rattus norvegicus [1]): 58%
Inhibition (Rattus norvegicus [2]): 50%

Compound: O=S(=O)(c1cc(Cl)cc(Cl)c1)c1ccc(O)nn1
inhibition in vivo at 5 mg/kg (Rattus norvegicus [6]): 30%
inhibition in vivo at 20 mg/kg (Rattus norvegicus [7]): 38%
inhibition in vivo at 20 mg/kg (Rattus norvegicus [8]): 91%
inhibition in vivo at 5 mg/kg (Rattus norvegicus [9]): 32%
inhibition in vivo at 5 mg/kg (Rattus norvegicus [10]): 68%
inhibition in vivo at 20 mg/kg (Rattus norvegicus [11]): 49%
inhibition in vivo at 5 mg/kg (Rattus norvegicus [12]): 63%
inhibition in vivo at 20 mg/kg (Rattus norvegicus [13]): 73%

Compound: O=c1ccc(S(=O)(=O)c2cccc(F)c2F)n[nH]1
inhibition in vivo at 10 mg/kg (Rattus norvegicus [14]): 50%
IC50 [5]: 390 nM
inhibition in vivo at 30 mg/kg (Rattus norvegicus [15]): 81%

Compound: O=c1ccc(S(=O)(=O)Cc2ccccc2)n[nH]1
inhibition in vivo at 60 mg/kg (Rattus norvegicus [31]): 73%
IC50 [5]: 600 nM

Compound: Cc1c(S(=O)(=O)c2ccc(O)nn2)oc2ccc(C(F)(F)F)cc12
inhibition in vivo at 10 mg/kg (Rattus norvegicus [16]): 101%
inhibition in vivo at 1 mg/kg (Rattus norvegicus [17]): 43%
ED50 (Rattus norvegicus [18]): 1.3 mg/kg
ED50 (Rattus norvegicus [33]): 1 mg/kg
inhibition in vivo at 3 mg/kg (Rattus norvegicus [20]): 79%
ED50 (Rattus norvegicus [34]): 2 mg/kg
ED50 (Rattus norvegicus [35]): < 1 mg/kg
inhibition in vivo at 1 mg/kg (Rattus norvegicus [22]): 75%
IC50 [5]: 5 nM
inhibition in vivo at 10 mg/kg (Rattus norvegicus [23]): 102%
inhibition in vivo at 10 mg/kg (Rattus norvegicus [25]): 100%
inhibition in vivo at 3 mg/kg (Rattus norvegicus [26]): 91%
inhibition in vivo at 3 mg/kg (Rattus norvegicus [27]): 81%
inhibition in vivo at 1 mg/kg (Rattus norvegicus [29]): 54%
inhibition in vivo at 3 mg/kg (Rattus norvegicus [30]): 95%

Compound: O=S(=O)(c1ccccc1)c1ccc(O)nn1
inhibition in vivo at 50 mg/kg (Rattus norvegicus [40]): 95%
inhibition in vivo at 10 mg/kg (Rattus norvegicus [16]): 40%
ED50 (Rattus norvegicus [18]): 15 mg/kg
ED50 (Rattus norvegicus [41]): 25 mg/kg
inhibition in vivo at 25 mg/kg (Rattus norvegicus [42]): 49%
inhibition in vivo at 50 mg/kg (Rattus norvegicus [43]): 74%
inhibition in vivo at 10 mg/kg (Rattus norvegicus [24]): 14%
inhibition in vivo at 25 mg/kg (Rattus norvegicus [44]): 73%

Source: ChEMBL document CHEMBL1141107, “A novel series of non-carboxylic acid, non-hydantoin inhibitors of aldose reductase with potent oral activity in diabetic rat models: 6-(5-chloro-3-methylbenzofuran-2-sulfonyl)-2H-pyridazin-3-one and congeners” (J Med Chem, 2005)
